≈ marks a conversion by molar mass, not a printed value.
test system: Enterococcus faecalis; test: Antimicrobial activity was determined against vancomycin-resistant Enterococcus faecalis (VREF 51559); type: functional; settings: not given

Compared with Cn1cc(NC(=O)c2cc(NC(=O)c3cc(NC(=O)c4nsc(NCCCO)c4Cl)cn3C)cn2C)cc1C(=O)NCCN1CCOCC1, CCOCCCNc1snc(C(=O)Nc2cc(C(=O)Nc3cc(C(=O)Nc4cc(C(=O)NCCN5CCOCC5)n(C)c4)n(C)c3)n(C)c2)c1Cl is 4-fold higher in MIC: 0.5 µg/mL (≈ 0.699 µM) for the first, 2 µg/mL (≈ 2.69 µM) for the second.

Going from Cn1cc(NC(=O)c2cc(NC(=O)c3cc(NC(=O)c4nsc(NCCCNC5CCCCC5)c4Cl)cn3C)cn2C)cc1C(=O)NCCCNC1CCCCC1 to CCOCCCNC(=O)c1cc(NC(=O)c2cc(NC(=O)c3cc(NC(=O)c4nsc(NCCN5CCOCC5)c4Cl)cn3C)cn2C)cn1C, the MIC rises from 2 µg/mL (≈ 2.43 µM) to 4 µg/mL (≈ 5.38 µM) (2-fold).

CN(C)CCCNC(=O)c1cc(NC(=O)c2cc(NC(=O)c3cc(NC(=O)c4nsc(NCCCCCCCN)c4Cl)cn3C)cn2C)cn1C gave an MIC of 1 µg/mL (≈ 1.35 µM).

test system: Streptococcus pneumoniae; test: Antimicrobial activity was determined against penicillin-resistant Streptococcus pneumoniae (PRSP 51422); type: functional; settings: not given

Going from Cn1cc(NC(=O)c2cc(NC(=O)c3cc(NC(=O)c4nsc(NCCCO)c4Cl)cn3C)cn2C)cc1C(=O)NCCN1CCOCC1 to CCOCCCNc1snc(C(=O)Nc2cc(C(=O)Nc3cc(C(=O)Nc4cc(C(=O)NCCN5CCOCC5)n(C)c4)n(C)c3)n(C)c2)c1Cl, the MIC rises from 0.031 µg/mL (≈ 0.0433 µM) to 0.125 µg/mL (≈ 0.168 µM) (4-fold).

Compared with Cn1cc(NC(=O)c2cc(NC(=O)c3cc(NC(=O)c4nsc(NCCCNC5CCCCC5)c4Cl)cn3C)cn2C)cc1C(=O)NCCCNC1CCCCC1, CCOCCCNC(=O)c1cc(NC(=O)c2cc(NC(=O)c3cc(NC(=O)c4nsc(NCCN5CCOCC5)c4Cl)cn3C)cn2C)cn1C is 2-fold higher in MIC: 0.5 µg/mL (≈ 0.608 µM) for the first, 1 µg/mL (≈ 1.35 µM) for the second.

CN(C)CCCNC(=O)c1cc(NC(=O)c2cc(NC(=O)c3cc(NC(=O)c4nsc(NCCCCCCCN)c4Cl)cn3C)cn2C)cn1C gave an MIC of 16 µg/mL (≈ 21.6 µM).

test system: Streptococcus pneumoniae; test: Antimicrobial activity was determined against penicillin-susceptible Streptococcus pneumoniae (PSSP 49619); type: functional; settings: not given

First: Cn1cc(NC(=O)c2cc(NC(=O)c3cc(NC(=O)c4nsc(NCCCO)c4Cl)cn3C)cn2C)cc1C(=O)NCCN1CCOCC1
Second: CCOCCCNc1snc(C(=O)Nc2cc(C(=O)Nc3cc(C(=O)Nc4cc(C(=O)NCCN5CCOCC5)n(C)c4)n(C)c3)n(C)c2)c1Cl
The MIC of the first is 2-fold higher: 0.5 µg/mL (≈ 0.699 µM) for the first, 0.25 µg/mL (≈ 0.336 µM) for the second.

Going from Cn1cc(NC(=O)c2cc(NC(=O)c3cc(NC(=O)c4nsc(NCCCNC5CCCCC5)c4Cl)cn3C)cn2C)cc1C(=O)NCCCNC1CCCCC1 to CCOCCCNC(=O)c1cc(NC(=O)c2cc(NC(=O)c3cc(NC(=O)c4nsc(NCCN5CCOCC5)c4Cl)cn3C)cn2C)cn1C, the MIC falls from 2 µg/mL (≈ 2.43 µM) to 0.5 µg/mL (≈ 0.673 µM) (4-fold).

In the case of CN(C)CCCNC(=O)c1cc(NC(=O)c2cc(NC(=O)c3cc(NC(=O)c4nsc(NCCCCCCCN)c4Cl)cn3C)cn2C)cn1C, the MIC is reported as 32 µg/mL (≈ 43.1 µM).

test system: Enterococcus faecalis; test: Antimicrobial activity was determined against vancomycin-susceptible Enterococcus faecalis (VSEF 29212); type: functional; settings: not given

Compared with Cn1cc(NC(=O)c2cc(NC(=O)c3cc(NC(=O)c4nsc(NCCCO)c4Cl)cn3C)cn2C)cc1C(=O)NCCN1CCOCC1, CCOCCCNc1snc(C(=O)Nc2cc(C(=O)Nc3cc(C(=O)Nc4cc(C(=O)NCCN5CCOCC5)n(C)c4)n(C)c3)n(C)c2)c1Cl is 2-fold higher in MIC: 0.125 µg/mL (≈ 0.175 µM) for the first, 0.25 µg/mL (≈ 0.336 µM) for the second.

Going from Cn1cc(NC(=O)c2cc(NC(=O)c3cc(NC(=O)c4nsc(NCCCNC5CCCCC5)c4Cl)cn3C)cn2C)cc1C(=O)NCCCNC1CCCCC1 to CCOCCCNC(=O)c1cc(NC(=O)c2cc(NC(=O)c3cc(NC(=O)c4nsc(NCCN5CCOCC5)c4Cl)cn3C)cn2C)cn1C, the MIC rises from 2 µg/mL (≈ 2.43 µM) to 16 µg/mL (≈ 21.5 µM) (8-fold).

CN(C)CCCNC(=O)c1cc(NC(=O)c2cc(NC(=O)c3cc(NC(=O)c4nsc(NCCCCCCCN)c4Cl)cn3C)cn2C)cn1C showed an MIC of 8 µg/mL (≈ 10.8 µM).

test system: Staphylococcus aureus; test: Antimicrobial activity was determined against methicillin-resistant Staphylococcus aureus (MRSA 27660); type: functional; settings: not given

Cn1cc(NC(=O)c2cc(NC(=O)c3cc(NC(=O)c4nsc(NCCCO)c4Cl)cn3C)cn2C)cc1C(=O)NCCN1CCOCC1 and CCOCCCNc1snc(C(=O)Nc2cc(C(=O)Nc3cc(C(=O)Nc4cc(C(=O)NCCN5CCOCC5)n(C)c4)n(C)c3)n(C)c2)c1Cl are the same in MIC: 2 µg/mL (≈ 2.8 µM) for the first, 2 µg/mL (≈ 2.69 µM) for the second.

Going from Cn1cc(NC(=O)c2cc(NC(=O)c3cc(NC(=O)c4nsc(NCCCNC5CCCCC5)c4Cl)cn3C)cn2C)cc1C(=O)NCCCNC1CCCCC1 to CCOCCCNC(=O)c1cc(NC(=O)c2cc(NC(=O)c3cc(NC(=O)c4nsc(NCCN5CCOCC5)c4Cl)cn3C)cn2C)cn1C, the MIC rises from 1 µg/mL (≈ 1.22 µM) to 16 µg/mL (≈ 21.5 µM) (16-fold).

CN(C)CCCNC(=O)c1cc(NC(=O)c2cc(NC(=O)c3cc(NC(=O)c4nsc(NCCCCCCCN)c4Cl)cn3C)cn2C)cn1C showed an MIC of 32 µg/mL (≈ 43.1 µM).

test system: Candida albicans; test: Antifungal activity was determined against Candida albicans; type: functional; settings: not given

Cn1cc(NC(=O)c2cc(NC(=O)c3cc(NC(=O)c4nsc(NCCCO)c4Cl)cn3C)cn2C)cc1C(=O)NCCN1CCOCC1 and CCOCCCNc1snc(C(=O)Nc2cc(C(=O)Nc3cc(C(=O)Nc4cc(C(=O)NCCN5CCOCC5)n(C)c4)n(C)c3)n(C)c2)c1Cl cannot be ordered by MIC: greater than 32 µg/mL for the first, greater than 32 µg/mL for the second.

First: Cn1cc(NC(=O)c2cc(NC(=O)c3cc(NC(=O)c4nsc(NCCCNC5CCCCC5)c4Cl)cn3C)cn2C)cc1C(=O)NCCCNC1CCCCC1
Second: CCOCCCNC(=O)c1cc(NC(=O)c2cc(NC(=O)c3cc(NC(=O)c4nsc(NCCN5CCOCC5)c4Cl)cn3C)cn2C)cn1C
The MIC of the first is lower: 16 µg/mL (≈ 19.5 µM) for the first, greater than 32 µg/mL for the second.

CN(C)CCCNC(=O)c1cc(NC(=O)c2cc(NC(=O)c3cc(NC(=O)c4nsc(NCCCCCCCN)c4Cl)cn3C)cn2C)cn1C gave an MIC greater than 32 µg/mL.

test system: Escherichia coli; test: Binding to the sequence 5'-ACAATTAA-3', a site proximal to the […] RNA polymerase subunit binding site within the Escherichia coli Trc promoter.; type: functional; settings: read-out: Kd app

Cn1cc(NC(=O)c2cc(NC(=O)c3cc(NC(=O)c4nsc(NCCCO)c4Cl)cn3C)cn2C)cc1C(=O)NCCN1CCOCC1 and CCOCCCNc1snc(C(=O)Nc2cc(C(=O)Nc3cc(C(=O)Nc4cc(C(=O)NCCN5CCOCC5)n(C)c4)n(C)c3)n(C)c2)c1Cl are within 1.5-fold of each other in Kd: 1.03 nM for the first, 1.34 nM for the second.

Compared with Cn1cc(NC(=O)c2cc(NC(=O)c3cc(NC(=O)c4nsc(NCCCNC5CCCCC5)c4Cl)cn3C)cn2C)cc1C(=O)NCCCNC1CCCCC1, CCOCCCNC(=O)c1cc(NC(=O)c2cc(NC(=O)c3cc(NC(=O)c4nsc(NCCN5CCOCC5)c4Cl)cn3C)cn2C)cn1C is 70-fold higher in Kd: 1.19 nM for the first, 83.3 nM for the second.

In the case of CN(C)CCCNC(=O)c1cc(NC(=O)c2cc(NC(=O)c3cc(NC(=O)c4nsc(NCCCCCCCN)c4Cl)cn3C)cn2C)cn1C, the Kd is reported as 1.3 nM.

test system: Staphylococcus aureus; test: Antimicrobial activity was determined against methicillin-susceptible S. aureus(MSSA 29213); type: functional; settings: not given

Cn1cc(NC(=O)c2cc(NC(=O)c3cc(NC(=O)c4nsc(NCCCO)c4Cl)cn3C)cn2C)cc1C(=O)NCCN1CCOCC1 and CCOCCCNc1snc(C(=O)Nc2cc(C(=O)Nc3cc(C(=O)Nc4cc(C(=O)NCCN5CCOCC5)n(C)c4)n(C)c3)n(C)c2)c1Cl are the same in MIC: 1 µg/mL (≈ 1.4 µM) for the first, 1 µg/mL (≈ 1.35 µM) for the second.

Going from Cn1cc(NC(=O)c2cc(NC(=O)c3cc(NC(=O)c4nsc(NCCCNC5CCCCC5)c4Cl)cn3C)cn2C)cc1C(=O)NCCCNC1CCCCC1 to CCOCCCNC(=O)c1cc(NC(=O)c2cc(NC(=O)c3cc(NC(=O)c4nsc(NCCN5CCOCC5)c4Cl)cn3C)cn2C)cn1C, the MIC rises from 1 µg/mL (≈ 1.22 µM) to 16 µg/mL (≈ 21.5 µM) (16-fold).

CN(C)CCCNC(=O)c1cc(NC(=O)c2cc(NC(=O)c3cc(NC(=O)c4nsc(NCCCCCCCN)c4Cl)cn3C)cn2C)cn1C gave an MIC of 32 µg/mL (≈ 43.1 µM).
